Here are results for 5 compounds from patent US20090005396A1, “Use of Pyrazolyl-Pyrimidine Derivatives in the Treatment of Pain” (ASTRAZENECA AB, priority 2005, published 2009).

The term IC50 denotes the concentration that gives 50% inhibition. Lower therefore signals greater potency in that assay.

The target in one data set is T1, human TrkA kinase (Homo sapiens, UniProt P04629).
T1 construct: The intracellular domain of a His-tagged human TrkA kinase; His; made in house; host or cells: High Five insect cells
Description: TrkA kinase assay (AlphaScreen). Format: biochemical. The conditions noted are these: intracellular domain of His-tagged human TrkA, 20 μM ATP (=Km). On the procedure: TrkA kinase activity is measured in 384-well format using AlphaScreen technology. […] The intracellular domain of a His-tagged human TrkA kinase was expressed in High Five cells. The kinase was incubated with ATP and the biotinylated substrate for 15 minutes at room temperature. The reactions were then stopped by the addition of EDTA, anti-phosphotyrosine antibody (PT-100) coated acceptor beads and streptavidin coated donor beads. After 2 h of incubation in the dark at room temperature, the product was detected using a Fusion Alpha instrument. […] Termination/Detection conditions: 25 mM HEPES pH 7.4, 100 mM NaCl, 48 mM EDTA, 0.1% BSA and 20 μg/ml of donor and acceptor beads.
(§1) When tested in the above in-vitro assay the Trk inhibitory activity of the following examples was measured at the following IC50s.

The next data set concerns the target T2, human TrkB kinase (Homo sapiens, UniProt Q16620).
T2 construct: The intracellular domain of a HIS-tagged human TrkB kinase; HIS; made in house; host or cells: SF9 insect cells
Description: TrkB kinase assay (HTRF). The conditions noted are these: intracellular domain of HIS-tagged human TrkB. In kind it is biochemical. The protocol: TrkB kinase activity is being measured against its ability to phosphorylate synthetic tyrosine residues within a generic polypeptide substrate using homogenous time-resolved fluorescence (HTRF) technology. The intracellular domain of a HIS-tagged human TrkB kinase was expressed in SF9 cells and purified using standard nickel column chromatography. After the kinase is incubated with a biotinylated substrate and ATP for 50 minutes at room temperature, the kinase reaction is stopped by the addition of 60 mM EDTA. The reaction is performed in 384 well microtitre plates and reaction products are detected with the addition of strepavidin-linked and phosphotyrosine-specific antibodies using the Tecan Ultra Evolution Microplate Fluometer after an additional 3-hour incubation at room temperature.
as §1
For orientation: Time-resolved FRET reads energy transfer from a long-lived donor to a nearby acceptor.

Data set [1] has as its system carrageenan monoarthritis. Description: Rat carrageenan test (carrageenan monoarthritis, pain score). Format: in vivo. The following applies: oral, 80 μmol/kg. On the procedure: The compounds used according to the invention when given by systemic administration to mice or rats, specifically reduce pain in the rat carrageenan test as described by Tonussi and Ferreira (Pain 1992, 48, 421-427).
Description of the Rat Carrageenan Test
Experimental procedures. Under isoflurane anesthesia, 40 μL of carrageenan (7.5 mg/mL) was injected into the left tibio-tarsal (ankle) joint from the dorsal side. The injection causes a localized inflammation increasing to a maximum between 4 h to 6 h after induction, after which it gradually decreases, and the animals display decreased weight bearing on and guarding of the limb.
(2R)-2-{[5-Chloro-4-(1H-pyrazol-5-ylamino)pyrimidin-2-yl]amino}-2-(4-fluorophenyl)ethanol was administered 30 min before induction of monoarthritis. The rats were placed in an acrylic chamber and videotaped for 5 min from underneath, 2 h, 2 h30, 3 h, 3 h30, 5 h after drug administration. Subsequently, the weight the rats were willing to put on the injected paw was scored as described in the table below, and defined as the “Pain Score”: […]
Data analysis. Two Way Repeated Measures ANOVA (one factor repetition) followed by Newmans-Keuls method for all pairwise multiple comparison procedures (SigmaStat® 2.03) was used to evaluate group effects. The level of significance was set at p<0.05.

For data set [2], the system named is mechanical hypersensitivity. The conditions noted are these: injected into rats with pancreatite; cited from earlier work.

T1 sequence (P04629 440-796 limits assumed): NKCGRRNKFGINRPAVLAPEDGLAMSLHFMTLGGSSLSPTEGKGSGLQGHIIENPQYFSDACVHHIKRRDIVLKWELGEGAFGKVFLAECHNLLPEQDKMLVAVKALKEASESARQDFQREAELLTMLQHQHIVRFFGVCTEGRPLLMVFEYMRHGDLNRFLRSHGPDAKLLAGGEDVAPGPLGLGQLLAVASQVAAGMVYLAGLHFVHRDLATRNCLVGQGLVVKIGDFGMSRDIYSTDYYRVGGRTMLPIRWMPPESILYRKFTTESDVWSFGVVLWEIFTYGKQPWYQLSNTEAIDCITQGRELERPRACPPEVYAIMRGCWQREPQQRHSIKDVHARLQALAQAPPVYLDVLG
T2 sequence (Q16620 455-822 limits assumed): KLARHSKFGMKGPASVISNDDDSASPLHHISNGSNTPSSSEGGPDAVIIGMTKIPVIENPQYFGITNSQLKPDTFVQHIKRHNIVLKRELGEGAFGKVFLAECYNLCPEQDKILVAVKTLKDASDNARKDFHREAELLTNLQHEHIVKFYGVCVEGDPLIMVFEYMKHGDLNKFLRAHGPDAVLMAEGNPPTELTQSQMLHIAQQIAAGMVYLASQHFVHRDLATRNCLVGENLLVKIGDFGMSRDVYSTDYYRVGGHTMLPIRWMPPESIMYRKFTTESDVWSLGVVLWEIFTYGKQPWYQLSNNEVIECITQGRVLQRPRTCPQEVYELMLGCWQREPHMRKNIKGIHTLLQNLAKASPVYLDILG

With `C[C@H](Nc1ncc(Cl)c(Nc2cc(C3CC3)n[nH]2)n1)c1ccc(F)cc1` [5-Chloro-N^4-(5-cyclopropyl-1H-pyrazol-3-yl)-N^2-[(1S)-1-(4-fluorophenyl)ethyl]pyrimidine-2,4-diamine], the IC50 was 35 nM at human TrkA kinase and 140 nM against human TrkB kinase.

Take `OC[C@H](Nc1ncc(Cl)c(Nc2ccn[nH]2)n1)c1ccc(F)cc1` [(2R)-2-{[5-Chloro-4-(1H-pyrazol-5-ylamino)pyrimidin-2-yl]amino}-2-(4-fluorophenyl)ethanol]: the signs of side-effects entry in data set [1] is listed as “did not show signs of side-effects”. Moreover, the “pain score induced by carrageenan monoarthritis” value in data set [1] (given 30 min before induction, within 5 hours after administration, p<0.05) is recorded as “significantly reduced”.

In the case of `OC[C@H](Nc1ncc(F)c(Nc2cc(C3CC3)[nH]n2)n1)c1ccc(F)cc1` [(2R)-2-({4-[(5-Cyclopropyl-1H-pyrazol-3-yl)amino]-5-fluoropyrimidin-2-yl}amino)-2-(4-fluorophenyl)ethanol], the values for the IC50 against human TrkA kinase and against human TrkB kinase were 75 nM and 260 nM, respectively. On to `COC(=O)[C@@]1(O)C[C@H]2O[C@]1(C)n1c3ccccc3c3c4c(c5c6ccccc6n2c5c31)C(=O)NC4` [Compound K252a, K252a], for which the mechanical hypersensitivity entry in data set [2] was “could suppress mechanical hypersensitivity”. With `OCC[C@H](Nc1ncc(Cl)c(Nc2cc(C3CC3)[nH]n2)n1)c1ccc(F)cc1` [(3S)-3-({4-[(5-Cyclopropyl-1H-pyrazol-3-yl)amino]-5-chloropyrimidin-2-yl}amino)-3-(4-fluorophenyl)propan-1-ol], the IC50 turned out to be 39 nM against human TrkA kinase and 220 nM against human TrkB kinase.
